Assay results as given in paper PMC9145754, “Novel Soloxolone Amides as Potent Anti-Glioblastoma Candidates: Design, Synthesis, In Silico Analysis and Biological Activities In Vitro and In Vivo” (Pharmaceuticals, 2022).

Key:
[1] = system: U118 cells; assay: Scratch assay (2D migration); assay type: cell-based, human; settings: U118, 12 at 100 nM, 48 h
Method: To evaluate the ability of tryptamide 12 to suppress the migration potential of glioblastoma cells, two independent approaches were undertaken, including assessment of cell movement on a 2D surface (scratch assay) and through a trans-well membrane (CIM-Plate).
To assess the 2D motility of glioblastoma cells, U118 cells were seeded in triplicate in 6-well plates at a density of 8 × 10^5 cells/well and cultured to 80% confluence. Thereafter, the cell monolayers were scratched with 10 µL pipette tips and washed twice with PBS to remove floating cells and cell debris and treated with 12 at 100 nM for 48 h. At 0 h and 48 h, the scratched cell monolayers were imaged using a Primo Vert microscope with phase contrast optics (ZEISS, Oberkochen, Germany) equipped with a AxioCam ERc5s camera (ZEISS, Oberkochen, Germany). The wound closure rate was calculated using ImageJ software. In total, 4–5 regions on a single scratch were analyzed.

[2] = system: U87 glioblastoma cells; assay: Annexin V-APC/PI apoptosis assay, U87; assay type: cell-based, human; settings: for U87 Q4-2 (right upper quadrant, late apoptotic cells): 24 h, control 5.9%
Method: To evaluate which form of cell death was induced by compound 12 in glioblastoma cells, its ability to stimulate apoptosis, necrosis or autophagy was examined.
To quantify the percentage of cells undergoing apoptosis, glioblastoma U87 and U118 cells were seeded in 6-well plates at 2.8 × 10^5 cells/well in complete growth medium and incubated at standard conditions overnight followed by treatment with 12 at 4 µM for 24 h. Thereafter, the cells were harvested by trypsinization (TrypLE Express (Gibco, USA)) and centrifugation at 400 g for 5 min, washed with PBS and stained with 5 µL of Annexin V-APC (Sony Biotechnology Inc., San Jose, CA, USA) and 10 µL of propidium iodide (PI) (Invitrogen, Waltham, MA, USA) for 15 min at room temperature in the dark. After the incubation time, the cells were analyzed using a NovoCyte Flow Cytometer (ACEA Biosciences Inc., San Diego, CA, USA). For each sample, 10,000 events were acquired.

[3] = system: B16 cells; assay: MTT cytotoxicity assay, B16; assay type: cell-based, murine; settings: Mus musculus, 24 h, read-out: IC50, Melanoma, B16
Method: In the first step of the study, we analyzed the cytotoxicity of novel soloxolone derivatives 1–12 in a panel of tumor cells, including human cervical carcinoma HeLa, human duodenal carcinoma HuTu-80 and murine melanoma B16 cells, as well as human non-transformed hFF3 foreskin fibroblasts. The cells were treated with derivatives for 24 h and cell viability was evaluated by 3-(4,5-dimethylthiazol-2-yl)-2,5-diphenyltetrazolium bromide (MTT) assay. SM was used as the reference compound.
The cells in the exponential growth phase were seeded in quadruplicate in 96-well plates at a density of 1 × 10^4 cells/well for HeLa, U87, U118, KELLY and Neuro2a cells; 1.5 × 10^4 cells/well for HuTu-80 cells; 2 × 10^4 cells/well for B16 cells; and 7 × 10^3 cells/well for hFF3 fibroblasts. Cells were incubated under standard conditions overnight followed by their treatment with the investigated compounds (1–20 µM) for 24 h. Then, 10 µL of MTT solution was added to the cells to a final concentration of 0.5 mg/mL and plates were placed under standard conditions for 3 h followed by an aspiration of MTT-containing medium and a dissolution of formazan crystals with 100 µL of DMSO. The absorbance of each well was read at test and reference wavelengths of 570 and 620 nm, respectively, on a Multiscan RC plate reader (Thermo LabSystems, Helsinki, Finland).

[4] = system: U87 cells; assay: Vasculogenic mimicry on Matrigel; assay type: cell-based, human; settings: 12 at 200 nM, 5 h
Method: Considering that vasculogenic mimicry (VM), a process whereby tumor cells form tumor cell-lined vasculatures to reinforce blood supply to cancerous tissue, plays a crucial role in glioblastoma progression and aggressiveness and that some pentacyclic triterpenoids can inhibit this process, next we studied whether 12 affects VM in glioblastoma cells.
A 96-well plate was placed on ice for pre-cooling and Matrigel®® Matrix (Corning, Corning, NY, USA) was thawed at 4 °C and added to each well of the plate (50 μL/well). Then, the plate was placed at 37 °C in 5% CO2 for 1 h to solidify the Matrigel. U87 cells were seeded at 2 × 10^4 cells/well on the Matrigel-coated wells and treated with 12 at 200 nM for 5 h. At the end of the incubation time, each well was analyzed under a microscope with a phase contrast Primo Vert (ZEISS, Germany). Tubular structures in each field were imaged with a AxioCam ERc5s camera (ZEISS, Germany) and the average number of tubules from three to four random fields in each well was quantified by ImageJ. The experiment was performed in triplicate.

[5] = system: U118 cells; assay: Colony formation assay, U118; assay type: cell-based, human; settings: 14 days
Method: To evaluate the antitumor potential of 12 more comprehensively, its effects at non-toxic concentrations (25–500 nM; cell survival of ≥90%) on a range of metastatic-related processes in glioblastoma cells were studied. Firstly, we investigated the inhibitory activity of 12 on the clonogenic capacity of tumor cells in vitro, which reflects their ability to form colonies from single cells which characterizes the stemness of tumor cells and plays a crucial role in metastasis.
U118 cells were seeded in 96-well plates in six replicates at a density of 200 cells/well and treated with 12 at 25–500 nM for 14 days under standard conditions. The culture media were replaced with fresh media containing corresponding concentrations of 12 every 6 days. After the incubation time, cell colonies were fixed with 4% paraformaldehyde, stained with crystal violet dye (0.1% w/v) and photographed using the iBright 1500 Imaging System (Invitrogen, USA). The percentage of area covered by cell colonies was computed using the ColonyArea ImageJ plugin [95].

Structure (SMILES): CC1(C)C(=O)C(C#N)=C[C@]2(C)C3=CC(=O)[C@@H]4[C@@H]5C[C@@](C)(C(=O)NCCc6c[nH]c7ccccc67)CC[C@]5(C)CC[C@@]4(C)[C@]3(C)CC[C@@H]12 [compound 12]
- inhibition of 2D migration compared to the control [1]: two times
- U87 Q4-2 (right upper quadrant, late apoptotic cells) ([2]; 12 at 2 µM): 28%
- U87 Q4-2 (right upper quadrant, late apoptotic cells) ([2]; 12 at 4 µM): 73.4%
- necrotic cell death (left upper quadrant) ([2]; U87, 12 for 24 h): did not cause necrotic cell death
- IC50 [3]: 1.5 ± 0.2 µM
- decrease in numbers of tubular structures compared with untreated cells [4]: 2.2 fold
- reduction in the area of cell colonies compared to the control ([5]; U118, 12 at 200 nM): 1.4 fold
- reduction in the area of cell colonies compared to the control ([5]; U118, 12 at 500 nM): 2 fold
